Test [1] concerns the target Lysine-specific demethylase 5B (Homo sapiens, UniProt Q9UGL1). Description: Inhibition of KDM5B in human U2OS cells assessed as reduction in demethylation of H3K4me3 after 20 hrs by Hoechst 33342 staining based immunofluorescence assay. It is filed as cell-based.
The target of test [2] is T1, Lysine-specific demethylase 3A (Homo sapiens, UniProt Q9Y4C1).
T1 sequence (Q9Y4C1 whole entry): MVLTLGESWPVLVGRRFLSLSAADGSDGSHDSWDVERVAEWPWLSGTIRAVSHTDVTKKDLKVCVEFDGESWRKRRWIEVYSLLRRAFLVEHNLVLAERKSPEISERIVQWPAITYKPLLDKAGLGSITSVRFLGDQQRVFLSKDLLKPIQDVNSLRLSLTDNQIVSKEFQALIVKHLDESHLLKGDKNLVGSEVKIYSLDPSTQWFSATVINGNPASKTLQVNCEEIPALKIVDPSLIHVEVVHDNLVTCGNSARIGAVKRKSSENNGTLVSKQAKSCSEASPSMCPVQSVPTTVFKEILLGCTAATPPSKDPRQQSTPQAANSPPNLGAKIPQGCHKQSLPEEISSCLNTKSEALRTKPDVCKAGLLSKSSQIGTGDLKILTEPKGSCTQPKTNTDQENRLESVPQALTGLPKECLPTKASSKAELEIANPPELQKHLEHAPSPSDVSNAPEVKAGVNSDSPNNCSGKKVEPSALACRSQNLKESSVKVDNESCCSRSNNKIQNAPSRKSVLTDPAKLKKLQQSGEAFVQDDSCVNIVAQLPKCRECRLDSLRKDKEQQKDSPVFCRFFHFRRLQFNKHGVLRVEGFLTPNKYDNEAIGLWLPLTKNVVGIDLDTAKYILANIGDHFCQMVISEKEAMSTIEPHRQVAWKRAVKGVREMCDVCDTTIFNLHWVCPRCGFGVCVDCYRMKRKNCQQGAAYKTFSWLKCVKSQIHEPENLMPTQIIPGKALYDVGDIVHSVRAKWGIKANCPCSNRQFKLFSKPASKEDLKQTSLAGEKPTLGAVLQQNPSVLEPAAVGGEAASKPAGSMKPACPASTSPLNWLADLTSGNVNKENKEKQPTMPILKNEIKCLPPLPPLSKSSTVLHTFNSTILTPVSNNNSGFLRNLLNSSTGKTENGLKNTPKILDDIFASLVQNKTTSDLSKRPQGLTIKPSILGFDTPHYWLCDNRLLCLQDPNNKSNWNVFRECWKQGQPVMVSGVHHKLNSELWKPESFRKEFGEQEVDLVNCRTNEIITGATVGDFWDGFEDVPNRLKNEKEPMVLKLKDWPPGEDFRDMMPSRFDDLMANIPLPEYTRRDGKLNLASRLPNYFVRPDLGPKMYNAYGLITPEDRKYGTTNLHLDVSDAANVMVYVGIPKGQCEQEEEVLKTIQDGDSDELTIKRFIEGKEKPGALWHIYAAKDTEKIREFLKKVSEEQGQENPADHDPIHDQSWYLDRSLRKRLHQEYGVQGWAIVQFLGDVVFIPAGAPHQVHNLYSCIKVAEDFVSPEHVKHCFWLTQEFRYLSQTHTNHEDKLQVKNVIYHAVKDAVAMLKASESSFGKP
Kind of test: Inhibition of KDM3A (unknown origin) after 24 hrs by alphascreen assay. In general terms: Alpha assays give light when donor and acceptor beads are brought close together.

The target in test [3] is T2, Lysine-specific demethylase 2A (Homo sapiens, UniProt Q9Y2K7).
T2 sequence (Q9Y2K7 whole entry): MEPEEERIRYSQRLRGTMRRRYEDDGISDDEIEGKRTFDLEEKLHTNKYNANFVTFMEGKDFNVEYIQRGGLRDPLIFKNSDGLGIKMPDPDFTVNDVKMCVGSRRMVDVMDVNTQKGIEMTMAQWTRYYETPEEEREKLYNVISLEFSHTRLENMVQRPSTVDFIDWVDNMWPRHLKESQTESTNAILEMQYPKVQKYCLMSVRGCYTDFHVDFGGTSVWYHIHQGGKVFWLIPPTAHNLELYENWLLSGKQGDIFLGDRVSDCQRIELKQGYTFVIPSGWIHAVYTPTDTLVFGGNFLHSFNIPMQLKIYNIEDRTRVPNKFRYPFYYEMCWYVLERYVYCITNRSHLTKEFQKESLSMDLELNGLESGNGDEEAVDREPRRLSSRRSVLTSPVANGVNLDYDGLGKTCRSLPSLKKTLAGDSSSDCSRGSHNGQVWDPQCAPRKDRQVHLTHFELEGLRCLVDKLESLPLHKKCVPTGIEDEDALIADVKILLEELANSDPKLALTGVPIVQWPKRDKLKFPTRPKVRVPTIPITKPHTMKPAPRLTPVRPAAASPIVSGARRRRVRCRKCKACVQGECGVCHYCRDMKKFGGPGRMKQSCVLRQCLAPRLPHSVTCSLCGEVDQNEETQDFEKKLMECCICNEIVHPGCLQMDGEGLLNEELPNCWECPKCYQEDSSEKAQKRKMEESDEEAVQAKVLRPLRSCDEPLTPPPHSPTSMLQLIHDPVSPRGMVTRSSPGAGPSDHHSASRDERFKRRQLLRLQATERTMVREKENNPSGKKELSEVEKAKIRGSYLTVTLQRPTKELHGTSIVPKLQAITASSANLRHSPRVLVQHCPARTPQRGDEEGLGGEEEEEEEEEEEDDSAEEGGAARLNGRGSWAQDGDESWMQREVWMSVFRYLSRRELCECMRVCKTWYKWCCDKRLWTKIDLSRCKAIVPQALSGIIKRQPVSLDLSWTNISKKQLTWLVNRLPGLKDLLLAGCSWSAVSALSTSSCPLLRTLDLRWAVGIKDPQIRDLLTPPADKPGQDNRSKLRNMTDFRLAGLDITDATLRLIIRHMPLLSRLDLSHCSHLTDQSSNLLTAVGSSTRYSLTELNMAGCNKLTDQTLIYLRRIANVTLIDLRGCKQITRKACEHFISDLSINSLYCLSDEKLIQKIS
Kind of test: Inhibition of KDM2A (unknown origin) preincubated for 15 mins followed by histone substrate addition measured after 1 hr by alphascreen assay.

The target of test [4] is Lysine-specific demethylase 4E (Homo sapiens, UniProt B2RXH2). Description: Inhibition of KDM4E (unknown origin) preincubated for 15 mins followed by histone substrate addition measured after 1 hr by alphascreen assay.
Chain of Lysine-specific demethylase 4E (B2RXH2 whole entry): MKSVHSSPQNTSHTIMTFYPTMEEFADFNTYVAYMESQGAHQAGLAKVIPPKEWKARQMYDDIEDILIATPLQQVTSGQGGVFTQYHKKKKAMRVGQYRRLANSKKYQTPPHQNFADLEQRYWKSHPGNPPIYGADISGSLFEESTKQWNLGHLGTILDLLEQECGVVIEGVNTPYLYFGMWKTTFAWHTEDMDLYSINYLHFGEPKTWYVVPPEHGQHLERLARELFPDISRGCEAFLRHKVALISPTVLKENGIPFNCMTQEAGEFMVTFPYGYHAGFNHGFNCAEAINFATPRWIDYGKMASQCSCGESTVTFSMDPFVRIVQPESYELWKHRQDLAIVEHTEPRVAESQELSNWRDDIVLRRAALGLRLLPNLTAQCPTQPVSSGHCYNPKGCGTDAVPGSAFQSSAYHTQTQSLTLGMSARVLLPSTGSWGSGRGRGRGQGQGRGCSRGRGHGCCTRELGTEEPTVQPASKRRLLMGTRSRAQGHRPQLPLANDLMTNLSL

Chain of Lysine-specific demethylase 5B (Q9UGL1 whole entry): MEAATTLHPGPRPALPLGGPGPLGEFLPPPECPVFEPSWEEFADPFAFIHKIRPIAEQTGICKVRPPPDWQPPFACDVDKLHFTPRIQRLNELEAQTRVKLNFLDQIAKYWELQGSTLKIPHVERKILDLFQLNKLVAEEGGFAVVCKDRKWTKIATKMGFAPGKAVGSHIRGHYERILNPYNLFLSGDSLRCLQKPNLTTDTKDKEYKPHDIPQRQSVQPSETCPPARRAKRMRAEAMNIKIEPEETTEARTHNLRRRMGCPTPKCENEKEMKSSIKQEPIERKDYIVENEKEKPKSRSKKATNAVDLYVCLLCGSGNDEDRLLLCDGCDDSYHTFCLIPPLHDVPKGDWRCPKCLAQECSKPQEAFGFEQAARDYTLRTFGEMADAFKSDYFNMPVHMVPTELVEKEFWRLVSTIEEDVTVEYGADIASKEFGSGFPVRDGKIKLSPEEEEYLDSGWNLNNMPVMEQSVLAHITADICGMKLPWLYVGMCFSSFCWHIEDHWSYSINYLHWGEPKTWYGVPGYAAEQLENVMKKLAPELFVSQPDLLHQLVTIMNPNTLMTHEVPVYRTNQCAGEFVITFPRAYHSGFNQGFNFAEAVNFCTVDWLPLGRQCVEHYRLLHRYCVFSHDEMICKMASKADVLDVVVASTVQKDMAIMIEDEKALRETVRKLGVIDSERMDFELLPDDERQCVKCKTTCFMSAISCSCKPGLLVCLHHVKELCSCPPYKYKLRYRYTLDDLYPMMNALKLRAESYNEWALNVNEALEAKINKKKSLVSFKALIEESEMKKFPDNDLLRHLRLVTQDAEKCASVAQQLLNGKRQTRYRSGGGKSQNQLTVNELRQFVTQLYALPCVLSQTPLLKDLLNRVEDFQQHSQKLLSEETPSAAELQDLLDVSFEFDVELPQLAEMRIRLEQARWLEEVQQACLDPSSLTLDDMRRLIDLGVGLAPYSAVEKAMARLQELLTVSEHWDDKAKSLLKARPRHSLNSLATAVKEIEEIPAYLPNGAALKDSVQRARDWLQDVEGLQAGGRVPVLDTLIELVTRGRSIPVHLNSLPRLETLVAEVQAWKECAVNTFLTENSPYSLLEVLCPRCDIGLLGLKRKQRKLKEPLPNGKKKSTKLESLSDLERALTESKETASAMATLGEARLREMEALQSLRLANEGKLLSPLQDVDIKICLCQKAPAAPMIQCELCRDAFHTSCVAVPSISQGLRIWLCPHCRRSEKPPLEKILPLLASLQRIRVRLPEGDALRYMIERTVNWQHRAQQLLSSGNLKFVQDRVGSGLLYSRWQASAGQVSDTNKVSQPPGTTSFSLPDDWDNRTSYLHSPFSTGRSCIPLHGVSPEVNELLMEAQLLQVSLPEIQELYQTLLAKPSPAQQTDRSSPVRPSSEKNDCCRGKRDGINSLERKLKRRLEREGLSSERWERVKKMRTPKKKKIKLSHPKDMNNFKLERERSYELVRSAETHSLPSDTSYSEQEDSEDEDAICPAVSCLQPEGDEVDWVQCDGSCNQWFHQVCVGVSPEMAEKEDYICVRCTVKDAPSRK

By IC50 is commonly meant the concentration needed to halve the response being measured. `CCN(CCN(C)C)C(=O)CNCc1cc(C(=O)O)ccn1`: the IC50 in test [1] stood at 1 µM. The compound `CCCCCCCCOC(=O)c1ccc(O)c2ncccc12` gave a 50% inhibitory concentration (IC50) in test [2] greater than 100 µM. As for `Cc1ccsc1C(NC(=O)c1ccccc1)c1cc(Cl)c2cccnc2c1O` (racemic), the half-maximal inhibitory concentration (IC50) in test [3] amounted to 34 µM; in test [4], 5 µM.

For the origin of these results see ChEMBL document CHEMBL3784917, “Recent Progress in Histone Demethylase Inhibitors” (J Med Chem, 2016).
